Assay results from US11590116B2 (THERAVANCE BIOPHARMA R&D IP, LLC, priority 2019, dated 2023).

Experiments:
[1] = tested on: TGF-β-stimulated SMAD3 phosphorylation in BEAS-2B cells; assay: Cellular ALK5 potency assay, inhibition of TGF-β stimulated pSMAD3 formation in BEAS-2B cells; type: cell-based; details: Homo sapiens; inhibition of TGF-β stimulated pSMAD3 formation, BEAS-2B cells; read-out: BEAS2B pIC50 (converted)
Outline: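 AlphaLISA pSMAD3 read-out, beads incubated overnight. Human BEAS-2B cells: 1 h compound preincubation (37 °C, 5% CO2), then 30 min TGF-β at 10 ng/mL final, immediate lysis. Values are pIC50 relative to stimulated, compound-free baseline.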

[2] = biological target: T1, recombinant human ALK5 (TGF-βR1) protein (Homo sapiens, UniProt P36897); assay: Biochemical ALK5 (TGF-βR1) assay to measure pKi (LANCE Ultra ULight kinase assay); details: apparent pKi from pIC50 by Cheng-Prusoff, read-out: ALK5 pKi (converted)
T1 construct: purchased Life Technologies PR9075A
T1 sequence (P36897 34-503): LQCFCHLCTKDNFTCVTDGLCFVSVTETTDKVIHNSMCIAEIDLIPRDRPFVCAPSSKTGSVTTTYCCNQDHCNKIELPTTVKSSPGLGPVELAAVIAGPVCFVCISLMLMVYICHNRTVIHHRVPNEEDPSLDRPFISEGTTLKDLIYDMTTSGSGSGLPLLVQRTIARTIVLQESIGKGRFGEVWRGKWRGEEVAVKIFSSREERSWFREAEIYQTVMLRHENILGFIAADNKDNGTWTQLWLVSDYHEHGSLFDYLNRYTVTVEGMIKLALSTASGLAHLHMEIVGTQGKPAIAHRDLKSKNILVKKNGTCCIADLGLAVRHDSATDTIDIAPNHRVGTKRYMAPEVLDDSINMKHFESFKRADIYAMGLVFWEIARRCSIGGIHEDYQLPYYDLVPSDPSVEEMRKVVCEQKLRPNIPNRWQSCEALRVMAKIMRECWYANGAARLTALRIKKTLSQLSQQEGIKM
Outline: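 Compounds (10 μM to 25 pM) were preincubated 60 min at room temperature with enzyme, then reactions were started with ATP (125 μM stock, 5× final) and run 60 min at 37 °C. EDTA-containing Eu-anti-phospho-Topo IIα (Thr1342) antibody stopped the reaction; TR-FRET read at 665 nm. pIC50 from 4-parameter fit, converted to pKi via Cheng-Prusoff.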

`Cc1cccc(-c2nc3ccccn3c2-c2ccc3ncc(N4CCC(N5CCN(C)CC5)CC4)cc3c2)n1` [Compound 95, 3-[4-(4-methylpiperazin-1-yl)-1-piperidyl]-6-[2-(6-methyl-2-pyridyl)imidazo[1,2-a]pyridin-3-yl]quinoline] was tested, and the IC50 [1] was 25.1 to 158 nM and the Ki [2] was 0.0398 to 0.316 nM.

`CNCCn1cc(-c2cnc3ccc(-c4nn[nH]c4-c4cccc(C)n4)cc3c2)cn1` [Compound 125, N-methyl-2-(4-(6-(5-(6-methylpyridin-2-yl)-1H-1,2,3-triazol-4-yl)quinolin-3-yl)-1H-pyrazol-1-yl)ethan-1-amine] was tested, and the IC50 [1] was 25.1 to 158 nM and the Ki [2] was under 0.0316 nM.

In the case of `Cc1cccc(-c2nnn(Cc3ccccc3)c2-c2ccc3ncc(-c4cnn(C5CCCNC5)c4)cc3n2)n1` (stereo not drawn) [Compound 216, 2-(1-benzyl-4-(6-methylpyridin-2-yl)-1H-1,2,3-triazol-5-yl)-7-(1-(piperidin-3-yl)-1H-pyrazol-4-yl)-1,5-naphthyridine], the IC50 [1] is reported as 25.1 to 158 nM and the Ki [2] is reported as 0.0398 to 0.316 nM.

Work on `Cc1cccc(-c2n[nH]cc2-c2ccc3ncc(NCCN4CCNCC4)cc3n2)n1` [Compound 668, 6-[3-(6-methyl-2-pyridyl)-1H-pyrazol-4-yl]-N-(2-piperazin-1-ylethyl)-1,5-naphthyridin-3-amine] yielded an IC50 [1] of 200 to 1260 nM and a Ki [2] of under 0.0316 nM.

With `Cc1cccc(-c2n[nH]cc2-c2ccc3ncc(-c4nnn5c4NCCC5)cc3n2)n1` [Compound 550, 2-[3-(6-methyl-2-pyridyl)-1H-pyrazol-4-yl]-7-(4,5,6,7-tetrahydrotriazolo[1,5-a]pyrimidin-3-yl)-1,5-naphthyridine] the IC50 [1] was 25.1 to 158 nM and the Ki [2] was 0.0398 to 0.316 nM.

`Cc1cccc(-c2n[nH]cc2-c2ccc3nccc(NC(=O)CN4CCN(C(C)C)CC4)c3n2)n1` [Compound 839, 2-(4-isopropylpiperazin-1-yl)-N-[6-[3-(6-methyl-2-pyridyl)-1H-pyrazol-4-yl]-1,5-naphthyridin-4-yl]acetamide] was tested, and the IC50 [1] was 25.1 to 158 nM and the Ki [2] was 0.398 to 3.16 nM.

With `Cc1cccc(-c2[nH]cnc2-c2ccc3ncc(NC4CCC5(CC4)CNC5)cc3c2)n1` [Compound 14, N-(2-azaspiro[3.5]nonan-7-yl)-6-[5-(6-methyl-2-pyridyl)-1H-imidazol-4-yl]quinolin-3-amine] the IC50 [1] was 200 to 1260 nM and the Ki [2] was 0.0398 to 0.316 nM.

Compound `Cc1cccc(-c2[nH]cnc2-c2ccc3ncc(NC4CCNC4)cc3c2)n1` (stereo not drawn) [Compound 184, 6-[5-(6-methyl-2-pyridyl)-1H-imidazol-4-yl]-N-pyrrolidin-3-yl-quinolin-3-amine] has an IC50 [1] of 25.1 to 158 nM and a Ki [2] of 0.0398 to 0.316 nM.

For `Cc1cccc(-c2[nH]cnc2-c2ccc3ncc(-c4cccc(C(=O)O[C@@H]5CCNC5)c4)cc3c2)n1` [Compound 736, [(3R)-pyrrolidin-3-yl] 3-[6-[5-(6-methyl-2-pyridyl)-1H-imidazol-4-yl]-3-quinolyl]benzoate], the IC50 [1] was 25.1 to 158 nM and the Ki [2] was 0.0398 to 0.316 nM.

`CCOC(=O)CCc1ccnc2ccc(-c3c[nH]nc3-c3cccc(C)n3)nc12` [Compound 814, ethyl 3-[6-[3-(6-methyl-2-pyridyl)-1H-pyrazol-4-yl]-1,5-naphthyridin-4-yl]propanoate] gave an IC50 [1] of 25.1 to 158 nM and a Ki [2] of 0.0398 to 0.316 nM.

`Cc1cccc(-c2nn3cc(Cl)ccc3c2-c2ccc3ncc(-c4cn[nH]c4)cc3n2)n1` [Compound 330, 2-[6-chloro-2-(6-methyl-2-pyridyl)pyrazolo[1,5-a]pyridin-3-yl]-7-(1H-pyrazol-4-yl)-1,5-naphthyridine] gave an IC50 [1] of 25.1 to 158 nM and a Ki [2] of 0.0398 to 0.316 nM.

`Cc1cccc(-c2[nH]cnc2-c2ccc3ncc(C4=C[C@@H](C)N[C@H](C)C4)cc3c2)n1` [Compound 8, 3-[(2R,6R)-2,6-dimethyl-1,2,3,6-tetrahydropyridin-4-yl]-6-[5-(6-methyl-2-pyridyl)-1H-imidazol-4-yl]quinoline] gave an IC50 [1] of 25.1 to 158 nM and a Ki [2] of 0.0398 to 0.316 nM.

With `Cc1cccc(-c2n[nH]cc2-c2ccc3ncc(N(C)CCCN4CCOCC4)cc3n2)n1` [Compound 506, N-methyl-6-[3-(6-methyl-2-pyridyl)-1H-pyrazol-4-yl]-N-(3-morpholinopropyl)-1,5-naphthyridin-3-amine] the IC50 [1] was 25.1 to 158 nM and the Ki [2] was 0.0398 to 0.316 nM.

Work on `CN[C@H]1CC[C@@H](OC(=O)c2cnc3ccc(-c4nc[nH]c4-c4cccc(C)n4)cc3c2)CC1` [Compound 1071, [4-(methylamino)cyclohexyl] 6-[5-(6-methyl-2-pyridyl)-1H-imidazol-4-yl]quinoline-3-carboxylate] yielded an IC50 [1] of 25.1 to 158 nM and a Ki [2] of 0.398 to 3.16 nM.

For `COCC1CN(c2cnc3ccc(-c4c[nH]nc4-c4cccc(C)n4)nc3c2)CCN1C` (racemic) [Compound 354, 2-[3-(6-methyl-2-pyridyl)-1H-pyrazol-4-yl]-7-[rac-(3R)-3-(methoxymethyl)-4-methyl-piperazin-1-yl]-1,5-naphthyridine], the IC50 [1] was 25.1 to 158 nM and the Ki [2] was under 0.0316 nM.

Compound `Cc1cccc(-c2[nH]cnc2-c2ccc3ncc(-c4cccc(C(=O)O[C@H]5CCNC5)n4)cc3c2)n1` [Compound 1089, [(3S)-pyrrolidin-3-yl] 6-[6-[5-(6-methyl-2-pyridyl)-1H-imidazol-4-yl]-3-quinolyl]pyridine-2-carboxylate] has an IC50 [1] of 25.1 to 158 nM and a Ki [2] of 0.0398 to 0.316 nM.

For `Cc1cccc(-c2n[nH]cc2-c2ccc3ncc(N(C)C4CCNC4)cc3n2)n1` (racemic) [Compound 242, N-methyl-6-[3-(6-methyl-2-pyridyl)-1H-pyrazol-4-yl]-N-[rac-(3R)-pyrrolidin-3-yl]-1,5-naphthyridin-3-amine], the IC50 [1] was 25.1 to 158 nM and the Ki [2] was 0.0398 to 0.316 nM.

`Cc1cccc(-c2[nH]cnc2-c2ccc3ncc(-c4cccc5c4CNC5)cc3c2)n1` [Compound 636, 3-isoindolin-4-yl-6-[5-(6-methyl-2-pyridyl)-1H-imidazol-4-yl]quinoline] showed an IC50 [1] of 25.1 to 158 nM and a Ki [2] of 0.0398 to 0.316 nM.

Work on `CNc1cnc2ccc(-c3c(-c4cccc(C)n4)n[nH]c3OC)nc2c1` [Compound 507, 6-[5-methoxy-3-(6-methyl-2-pyridyl)-1H-pyrazol-4-yl]-N-methyl-1,5-naphthyridin-3-amine] yielded an IC50 [1] of 200 to 1260 nM and a Ki [2] of 0.398 to 3.16 nM.

`Cc1cccc(-c2[nH]ncc2-c2ccc3ncc(C(=O)OCCCCN4CCCC4)cc3n2)n1` [Compound 146, 4-pyrrolidin-1-ylbutyl 6-[5-(6-methyl-2-pyridyl)-1H-pyrazol-4-yl]-1,5-naphthyridine-3-carboxylate] showed an IC50 [1] of 25.1 to 158 nM and a Ki [2] of 0.0398 to 0.316 nM.

Work on `Cc1cccc(-c2nc3ccccn3c2-c2ccc3ncc(N4CCCNCC4)cc3c2)n1` [Compound 363, 3-(1,4-diazepan-1-yl)-6-[2-(6-methyl-2-pyridyl)imidazo[1,2-a]pyridin-3-yl]quinoline] yielded an IC50 [1] of 25.1 to 158 nM and a Ki [2] of 0.0398 to 0.316 nM.

`Cc1cccc(-c2[nH]cnc2-c2ccc3ncc(-c4ccc(C(=O)OCC5CNC5)cc4)cc3c2)n1` [Compound 650, azetidin-3-ylmethyl 4-[6-[5-(6-methyl-2-pyridyl)-1H-imidazol-4-yl]-3-quinolyl]benzoate] gave an IC50 [1] of 25.1 to 158 nM and a Ki [2] of 0.0398 to 0.316 nM.

`Cc1cccc(-c2n[nH]cc2-c2ccc3nccc(N)c3n2)n1` [Compound 835, 6-[3-(6-methyl-2-pyridyl)-1H-pyrazol-4-yl]-1,5-naphthyridin-4-amine] was tested, and the IC50 [1] was 25.1 to 158 nM and the Ki [2] was 0.398 to 3.16 nM.

`Cc1cccc(-c2[nH]nnc2-c2ccc3ncc(N4CCC(N5CCN(C)CC5)CC4)cc3n2)n1` [Compound 119, 7-[4-(4-methylpiperazin-1-yl)-1-piperidyl]-2-[5-(6-methyl-2-pyridyl)-1H-triazol-4-yl]-1,5-naphthyridine] was tested, and the IC50 [1] was 200 to 1260 nM and the Ki [2] was 0.0398 to 0.316 nM.
